# “Also recorded” adds a separate entry of the source.
# Key:
# [1] = test system: PDAC cell lines; assay: Clonogenic growth (colony formation) assay; type: cell-based, human; settings: all PDAC cell lines tested, 11-14 days
# From the text: PDAC cells are sensitive to chemical inhibition of CPSF3. CPSF3 was recently identified as the target for the small molecule JTE-607. JTE-607 is a prodrug that, when metabolized by the ester hydrolyzing enzyme carboxylesterase 1 (CES1), binds to CPSF3 and inhibits its catalytic activity, impairing the processing of newly synthesized mRNAs. As genetic depletion of CPSF3 attenuated PDAC cell proliferation (FIG. 1), it 2as hypothesized that pharmacologic inhibition of CPSF3 with JTE-607 could represent a novel therapeutic approach in PDAC. The sensitivity of multiple human pancreatic cell lines, both non-transformed and PDAC, to JTE-607 in a 72-hour dose-response cell viability assay was examined. […] To examine if sensitivity to CPSF3 inhibition was associated with proliferation rate, the relationship between cell line doubling time and JTE-607 sensitivity was assessed. […] Next, the effect of JTE-607 on cell proliferation by treating cells with increasing concentrations of JTE-607 and assessing cell viability in a time-dependent fashion (FIGS. 2C-2E) was determined. […]
# JTE-607 studies. […] The next day, JTE-607 was titrated over a range of concentrations using the Tecan D300e Digital Dispenser and cell viability was measured 72 hours post drug titration using a CellTiter-Glo Luminescent Cell Viability Assay Kit (Promega). […] Colony area was measured using ImageJ software. […]
# [2] = test system: xenograft models; settings: xenograft models in vivo; cited from earlier work
# [3] = test system: Panc1 cells; assay: Micrococcal Nuclease (MNase) assay of chromatin condensation; type: cell-based, human
# Experimental: (§1) Therefore, a Micrococcal Nuclease (MNase) assay was performed to assess relative chromatin condensation. In this assay, protein-free DNA is digested by MNase, producing DNA fragmentation patterns that are indicators of whether chromatin is in a condensed or relaxed state. […] To assess chromatin destabilization in a living cell, the HeLa-TI cell line model that has a silenced GFP reporter within a heterochromatic region of the genome was utilized. […] Therefore, GFP expression in HeLa-TI cells was monitored upon JTE-607 treatment by both fluorescence microscopy and flow cytometry.
# (§2) Micrococcal digestion. Micrococcal Nuclease (MNase) was performed as previously described. Briefly, cells were trypsinized, washed with 1×RSB buffer (10 mM Tris HCL, pH 7.6; 15 mM NaCl; 1.5 mM MgCl2) and pelleted at 1000 rpm for 4 minutes at room temperature. Cell pellets were resuspended in 1×RSB buffer with 1% TritonX-100, homogenized with a loose pestle (5 strokes) and centrifuged for 5 minutes at 2000 rpm at 4° C. Pellets were washed two times with 1 ml of buffer A (10 mM Tris HCL, pH 7.6; 15 mM NaCl; 60 mM KCl; 0.34 M Sucrose; 0.1% B-mercaptoethanol; 0.15 mM Spermine; 0.5 mM Spermidine; 0.25 mM PMSF) and nuclei were pelleted at 160 g for 10 minutes at 4° C. Nuclei were resuspended in 1.5 mL of buffer A supplemented with 1 mM of CaCl2). Nuclear suspensions (500 μL) were digested with 200 U/mL Micrococcal nuclease at 37° C. at different time points.
# [4] = test system: HPNE cells; assay: as above; type: cell-based, human; settings: compared with DMSO-treated cells
# Experimental: as §1, §2
# [5] = test system: Panc1 cells; assay: Histone transcriptional read-through by RT-qPCR; type: cell-based, human
# From the text: (§3) JTE-607 induces RD-histone read-through preferentially in PDAC cells. […] It was sought to validate this transcriptional read-through phenomena experimentally by RT-qPCR. Two RD- and two RI-histones that show differences beyond their 3′ end boundaries were picked for experimental validation (FIGS. 13A and 13B). PCR primers were designed to amplify different regions within and beyond the boundaries of the 3′-UTR (FIG. 13C). […] However, the effect of JTE-607 on transcriptional read-through in HPNE cells was minimal (FIG. 5A). […] Because stable long-term knockdown can force cells to adapt, it was asked whether short-term knockdown of CPSF3 can recapitulate JTE-607 effect on transcriptional read-through. […] Improperly processed histone mRNAs fail to be exported into the cytoplasm for translation, leading to decreased protein levels. […] Next, it was determined whether histone dysregulation might be transcriptionally mediated by dysregulation of transcription factors at the levels of APA or gene expression. MotifMap, an integrative genome-wide map of regulatory motif sites, was used to find putative transcription factors regulating expression of RD histones. 51 transcription factors that have strong binding sites (1000 bp upstream of transcription start site; FDR<0.05) within RD histone promoters (Table S3 (attached as a Large Table)) were found. However, these histone transcription factors are neither APA altered nor differentially expressed upon JTE-607 treatment (FIGS. 13G and 13H). Taken together, these findings indicate that JTE-607 decreases RD histone expression by promoting transcriptional read-through.
# (§4) RNA isolation and quantitative PCR. Cells were lysed with TRIzol reagent. RNA was isolated using Direct-zol RNA Miniprep. cDNA was synthesized using iScript cDNA Synthesis Kit. qPCR was conducted with SYBR Green PCR primers mixed with iTaq Universal SYBR Green Supermix and run on CFX connect systems (Bio-Rad). Data were analyzed in Microsoft Excel and graphed using GraphPad Prism (v 9.3.0).
# [6] = test system: HPNE cells; assay: Histone transcriptional read-through by RT-qPCR; type: cell-based, human
# From the text: as §3, §4
# [7] = healthy human volunteers; cited from earlier work
# [8] = test system: Panc1 cells; assay: Western blot of histone protein levels; type: cell-based, human; settings: dose- and time-dependent
# [9] = test system: human acute myeloid leukemia (AML) and Ewing's sarcoma cells; settings: in vitro; cited from earlier work
# [10] = early or late time points (2 h, 24 h)
smiles,measurement,setting,value
CCOC(=O)[C@H](Cc1ccccc1)NC(=O)c1cc(Cl)c(OCCN2CCN(C)CC2)c(Cl)c1O [JTE-607],colony formation,[1],significantly decreased colony formation
same,survival of tumor-bearing mice,[2],prolongs survival
same,mononucleosomes released by MNase digestion,[3]; after 30 minutes of incubation,~4×10^3 normalized FU
same,chromatin digestion by MNase,[3]; compared with DMSO-treated cells,rapid and complete chromatin digestion
same,chromatin digestion by MNase,[4],no chromatin digestion
same,transcriptional read-through of RD histones,"[5]; 24 h treatment, normalized to DMSO",up to −20 fold change
same,transcriptional read-through of RI histones,[5]; [10],did not induce transcriptional read-through
same,transcriptional read-through of RD histones,[6]; 24 h treatment,minimal
same,transcriptional read-through of RI histones,[6]; [10],did not induce transcriptional read-through
same,adverse events,[7],no serious adverse effects; also recorded: no severe adverse events reported
same,H3 and H2B protein levels,[8],reduced both H3 and H2B protein levels
same,apoptosis,[9],induces apoptosis

# From US20230355613A1, “METHODS FOR TREATING PANCREATIC DUCTAL ADENOCARCINOMA” (HEALTH RESEARCH, INC., priority 2022, published 2023)
